Measured values: patent publication US8871753B2, “Macrocyclic compounds and their use as kinase inhibitors” (Incyte Corporation, priority 2008, dated 2014)
Where a name gives a salt, the structure may show the parent alone. Read-outs that look alike come from different tables or passages of the source.

Tests used:
Format in all cases: biochemical
[1] = molecular target: T1, human JAK2 (a.a. 828-1132) (Homo sapiens, UniProt O60674); test: In vitro JAK kinase assay (HTRF, phosphorylation of a biotinylated peptide), JAK2
T1 construct: JAK2 (a.a. 828-1132); His tag (N); made in house; host or cells: insect cells (baculovirus)
Procedure, shortened: (§1)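 Kinase activity was measured as phosphorylation of a biotinylated peptide, with ATP at 90 μM for JAK1, 30 μM for JAK2 and 3 μM for JAK3. Reactions ran 1 hr at room temperature, were stopped with EDTA plus SA-APC and Eu-Py20, and were read by HTRF after 40 minutes of antibody binding.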

TYK2 = TYK2 (Homo sapiens, UniProt P29597); test: TYK2 kinase inhibition (Table A1)
[2] = molecular target: T2, Recombinant Human Anaplastic Lymphoma Kinase (Homo sapiens, UniProt Q9UM73); test: ALK HTRF kinase assay
T2 construct: purchased Invitrogen, Carlsbad, Calif
Procedure, shortened: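 Recombinant human ALK with biotinylated peptide substrate; phosphorylation detected by HTRF using Eu-labelled anti-phosphotyrosine antibody and streptavidin-allophycocyanin. IC50 from a sigmoidal fit with Hill slope.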

[3] = molecular target: T3, human JAK1 (a.a. 837-1142) (Homo sapiens, UniProt P23458); test: In vitro JAK kinase assay (HTRF, phosphorylation of a biotinylated peptide), JAK1; details: read-out: JAK1 IC50
T3 construct: human JAK1 (a.a. 837-1142); His tag (N); made in house; host or cells: insect cells (baculovirus)
Procedure, shortened: as §1

[4] = molecular target: T4, human JAK3 (a.a. 781-1124) (Homo sapiens, UniProt P52333); test: In vitro JAK kinase assay (HTRF, phosphorylation of a biotinylated peptide), JAK3
T4 construct: JAK3 (a.a. 781-1124); His tag (N); made in house; host or cells: insect cells (baculovirus)
Procedure, shortened: as §1

[5] = method AA1 (30 μM ATP) or AA2 (1000 μM ATP), not stated per value
[6] = compound at 500 nM or 1 mM, 90 μM ATP
[7] = method AA1 (90 μM ATP) or AA2 (1000 μM ATP), not stated per value
[8] = method AA1 (3 μM ATP) or AA2 (1000 μM ATP), not stated per value
[9] = percentage inhibition of the example compound at a concentration of 500 nM or 1 mM (not specified which)
[10] = compound at a concentration of 500 nM or 1 mM (not specified), cells shown as percentage

T4 sequence (P52333 781-1124): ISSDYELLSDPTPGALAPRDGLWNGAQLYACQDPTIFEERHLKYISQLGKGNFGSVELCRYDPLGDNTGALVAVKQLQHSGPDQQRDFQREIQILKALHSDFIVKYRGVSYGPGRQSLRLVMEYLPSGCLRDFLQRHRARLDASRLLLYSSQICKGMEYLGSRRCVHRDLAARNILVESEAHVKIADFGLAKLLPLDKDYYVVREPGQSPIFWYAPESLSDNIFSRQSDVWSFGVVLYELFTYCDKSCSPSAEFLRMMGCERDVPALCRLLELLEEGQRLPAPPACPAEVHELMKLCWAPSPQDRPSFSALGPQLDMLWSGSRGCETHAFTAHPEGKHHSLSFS
T2 sequence (Q9UM73 19-1620): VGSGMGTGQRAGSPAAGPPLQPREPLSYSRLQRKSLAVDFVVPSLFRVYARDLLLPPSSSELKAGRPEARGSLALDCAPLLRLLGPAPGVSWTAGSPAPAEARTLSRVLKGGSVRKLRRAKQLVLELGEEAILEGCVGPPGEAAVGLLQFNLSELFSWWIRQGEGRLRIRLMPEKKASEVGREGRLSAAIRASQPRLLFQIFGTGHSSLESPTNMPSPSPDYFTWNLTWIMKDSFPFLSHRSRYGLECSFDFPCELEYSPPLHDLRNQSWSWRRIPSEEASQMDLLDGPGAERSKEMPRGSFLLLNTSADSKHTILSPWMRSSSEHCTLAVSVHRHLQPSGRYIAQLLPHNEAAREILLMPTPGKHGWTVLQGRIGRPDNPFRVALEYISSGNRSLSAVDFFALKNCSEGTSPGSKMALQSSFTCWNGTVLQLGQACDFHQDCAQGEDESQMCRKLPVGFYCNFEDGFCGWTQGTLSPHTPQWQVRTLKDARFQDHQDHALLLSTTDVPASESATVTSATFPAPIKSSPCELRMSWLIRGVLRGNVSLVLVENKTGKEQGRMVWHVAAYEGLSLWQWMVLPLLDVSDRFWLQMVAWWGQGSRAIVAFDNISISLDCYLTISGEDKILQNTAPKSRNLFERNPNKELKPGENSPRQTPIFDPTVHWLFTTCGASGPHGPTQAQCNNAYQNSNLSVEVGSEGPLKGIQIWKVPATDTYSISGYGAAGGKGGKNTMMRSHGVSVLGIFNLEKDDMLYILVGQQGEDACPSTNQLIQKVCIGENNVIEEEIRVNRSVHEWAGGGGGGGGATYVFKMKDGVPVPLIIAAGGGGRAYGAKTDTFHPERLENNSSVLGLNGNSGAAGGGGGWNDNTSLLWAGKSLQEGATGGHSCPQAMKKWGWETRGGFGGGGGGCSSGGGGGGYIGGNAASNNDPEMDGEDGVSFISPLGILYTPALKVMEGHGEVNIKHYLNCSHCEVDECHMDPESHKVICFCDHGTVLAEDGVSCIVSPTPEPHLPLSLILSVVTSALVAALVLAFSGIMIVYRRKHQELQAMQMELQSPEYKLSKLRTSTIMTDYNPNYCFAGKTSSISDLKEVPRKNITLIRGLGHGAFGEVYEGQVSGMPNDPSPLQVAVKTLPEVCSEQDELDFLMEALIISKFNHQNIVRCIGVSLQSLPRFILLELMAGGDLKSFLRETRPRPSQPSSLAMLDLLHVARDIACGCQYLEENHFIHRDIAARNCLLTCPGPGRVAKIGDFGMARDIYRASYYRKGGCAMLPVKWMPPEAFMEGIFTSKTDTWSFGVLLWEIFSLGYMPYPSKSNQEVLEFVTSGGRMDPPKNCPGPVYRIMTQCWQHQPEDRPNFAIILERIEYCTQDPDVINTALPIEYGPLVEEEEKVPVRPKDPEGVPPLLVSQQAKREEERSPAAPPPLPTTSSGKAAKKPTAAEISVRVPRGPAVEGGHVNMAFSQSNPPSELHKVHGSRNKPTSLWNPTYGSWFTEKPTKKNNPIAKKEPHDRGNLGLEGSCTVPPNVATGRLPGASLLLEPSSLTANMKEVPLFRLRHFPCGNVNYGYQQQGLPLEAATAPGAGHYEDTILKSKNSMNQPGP
T3 sequence (P23458 849-1154): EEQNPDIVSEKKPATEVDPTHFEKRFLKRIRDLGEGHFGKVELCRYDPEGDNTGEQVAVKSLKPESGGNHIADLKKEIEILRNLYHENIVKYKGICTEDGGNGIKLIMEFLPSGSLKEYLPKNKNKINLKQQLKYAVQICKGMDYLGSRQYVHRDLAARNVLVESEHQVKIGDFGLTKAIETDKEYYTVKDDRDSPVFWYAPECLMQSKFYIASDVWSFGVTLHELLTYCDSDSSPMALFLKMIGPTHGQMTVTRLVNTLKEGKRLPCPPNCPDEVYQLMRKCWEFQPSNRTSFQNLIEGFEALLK
T1 sequence (O60674 828-1132): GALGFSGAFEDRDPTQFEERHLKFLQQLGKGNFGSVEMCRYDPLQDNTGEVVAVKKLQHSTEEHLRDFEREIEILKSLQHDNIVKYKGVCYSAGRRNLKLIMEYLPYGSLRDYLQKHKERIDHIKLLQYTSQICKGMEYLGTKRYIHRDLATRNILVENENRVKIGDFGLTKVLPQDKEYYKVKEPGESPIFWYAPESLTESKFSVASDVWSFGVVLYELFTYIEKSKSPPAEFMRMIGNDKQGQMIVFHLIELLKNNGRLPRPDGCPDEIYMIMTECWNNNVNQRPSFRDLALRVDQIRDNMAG
Sequence of TYK2 (P29597 whole entry): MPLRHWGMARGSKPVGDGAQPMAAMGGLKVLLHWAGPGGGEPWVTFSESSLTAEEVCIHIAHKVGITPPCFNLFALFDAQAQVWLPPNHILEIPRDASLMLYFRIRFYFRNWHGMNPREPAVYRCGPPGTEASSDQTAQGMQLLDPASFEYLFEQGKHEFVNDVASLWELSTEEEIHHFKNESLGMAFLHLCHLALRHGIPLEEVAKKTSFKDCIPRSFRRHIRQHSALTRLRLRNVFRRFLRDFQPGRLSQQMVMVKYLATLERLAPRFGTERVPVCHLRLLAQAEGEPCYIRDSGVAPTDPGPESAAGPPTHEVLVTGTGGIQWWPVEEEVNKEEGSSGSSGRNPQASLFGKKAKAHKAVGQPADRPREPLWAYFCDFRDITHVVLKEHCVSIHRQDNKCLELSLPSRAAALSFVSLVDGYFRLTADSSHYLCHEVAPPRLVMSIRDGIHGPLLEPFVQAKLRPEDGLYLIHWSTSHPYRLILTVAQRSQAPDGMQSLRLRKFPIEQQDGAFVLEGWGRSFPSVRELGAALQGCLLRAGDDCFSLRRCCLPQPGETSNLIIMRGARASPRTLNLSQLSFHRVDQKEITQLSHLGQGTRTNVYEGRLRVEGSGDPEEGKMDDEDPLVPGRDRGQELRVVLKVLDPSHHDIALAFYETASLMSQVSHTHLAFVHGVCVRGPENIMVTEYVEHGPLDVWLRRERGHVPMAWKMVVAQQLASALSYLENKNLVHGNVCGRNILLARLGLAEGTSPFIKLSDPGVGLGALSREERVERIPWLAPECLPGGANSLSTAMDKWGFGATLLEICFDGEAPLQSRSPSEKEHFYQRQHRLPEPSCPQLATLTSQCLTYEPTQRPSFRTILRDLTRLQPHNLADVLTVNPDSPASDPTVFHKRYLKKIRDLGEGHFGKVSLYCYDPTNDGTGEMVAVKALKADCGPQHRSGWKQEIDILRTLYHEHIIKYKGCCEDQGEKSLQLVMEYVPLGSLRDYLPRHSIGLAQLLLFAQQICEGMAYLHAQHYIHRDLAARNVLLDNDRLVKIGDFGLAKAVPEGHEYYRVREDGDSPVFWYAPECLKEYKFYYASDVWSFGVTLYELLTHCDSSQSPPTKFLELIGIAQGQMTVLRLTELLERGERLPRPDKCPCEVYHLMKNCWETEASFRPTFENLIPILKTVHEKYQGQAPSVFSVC

| SMILES | IC50 [1, 5] [nM] | IC50 (TYK2) [nM] | ALK % of inhibition at a concentration of 500 nM or 1 mM [2, 6] [%] | IC50 [3, 7] [nM] | IC50 [4, 8] [nM] | IC50 ([1]; Table B1) [nM] | IC50 (TYK2; Table B1) [nM] | IC50 ([3]; Table B1) [nM] | IC50 ([4]; Table B1) [nM] | also measured |
| --- | --- | --- | --- | --- | --- | --- | --- | --- | --- | --- |
| CC(=O)N1CC[C@@H](C(=O)Nc2ccc3cc2CCc2cccc(c2)Nc2ncc(Cl)c(n2)N3)C1 [Example A51, (3R)-1-Acetyl-N-[6-chloro-2,4,8,22-tetraazatetracyclo[14.3.1.1(3,7).1(9,13)]docosa-1(20),3(22),4,6,9(21),10,12,16,18-nonaen-12-yl]pyrrolidine-3-carboxamide trifluoroacetate] | 5 | 21 | 30 | 13 | 10 | – | – | – | – | – |
| CS(=O)(=O)c1ccc(-c2cc3cc(c2)Nc2ncc(Cl)c(n2)Nc2cccc(c2)OCC3)cc1 [Example D29, 6-Chloro-19-[4-(methylsulfonyl)phenyl]-14-oxa-2,4,8,23-tetraazatetracyclo[15.3.1.1(3,7).1(9,13)]tricosa-1(21),3(23),4,6,9(22),10,12,17,19-nonaene trifluoroacetate] | – | – | – | – | – | – | – | – | – | IC50 ([1]; Table D1): 0.5 nM; IC50 (TYK2; Table D1): 3.4 nM; IC50 ([2]; Table D1, 90 μM ATP): 238 nM; IC50 ([3]; Table D1): 2 nM; IC50 ([4]; Table D1): 14 nM |
| O=C(Nc1ccccc1)N[C@@H](CO)C(=O)Nc1ccc2cc1CCc1cccc(c1)Nc1ncc(Cl)c(n1)N2 [Example A68, (2S)-2-[(Anilinocarbonyl)amino]-N-[6-chloro-2,4,8,22-tetraazatetracyclo[14.3.1.1(3,7).1(9,13)]docosa-1(20),3(22),4,6,9(21),10,12,16,18-nonaen-12-yl]-3-hydroxypropanamide trifluoroacetate] | 2.8 | 11 | 46 | 2 | 4.1 | – | – | – | – | – |
| N#Cc1ccc(S(=O)(=O)N2CCC(CC(=O)Nc3ccc4cc3CCc3cccc(c3)Nc3ncc(Cl)c(n3)N4)CC2)cc1 [Example A209, N-[6-Chloro-2,4,8,22-tetraazatetracyclo[14.3.1.1(3,7).1(9,13)]docosa-1(20),3(22),4,6,9(21),10,12,16,18-nonaen-12-yl]-2-{1-[(4-cyanophenyl)sulfonyl]piperidin-4-yl}acetamide trifluoroacetate] | 120 | > 200 | 19 | 60 | > 200 | – | – | – | – | – |
| O=C(CC1CCN(C(=O)c2ccccc2)CC1)Nc1ccc2cc1CCc1cccc(c1)Nc1ncc(Cl)c(n1)N2 [Example A56, 2-(1-Benzoylpiperidin-4-yl)-N-[6-chloro-2,4,8,22-tetraazatetracyclo[14.3.1.1(3,7).1(9,13)]docosa-1(20),3(22),4,6,9(21),10,12,16,18-nonaen-12-yl]acetamide trifluoroacetate] | 7.3 | 10 | 26 | 4.2 | 90 | – | – | – | – | – |
| N#Cc1ccc(S(=O)(=O)Nc2ccc3cc2CCc2cccc(c2)Nc2ncc(Cl)c(n2)N3)cc1 [Example B154, N-[6-Chloro-2,4,8,22-tetraazatetracyclo[14.3.1.1(3,7).1(9,13)]docosa-1(20), 3(22),4,6,9(21),10,12,16,18-nonaen-12-yl]-4-cyanobenzenesulfonamide trifluoroacetate] | – | – | – | – | – | 0.1 | 0.83 | 0.6 | 5.3 | IC50 ([2]; Table B1, cells without percent sign): 280 nM |
| CN(C)C(=O)N1CCC(CC(=O)Nc2ccc3cc2CCc2cccc(c2)Nc2ncc(Cl)c(n2)N3)CC1 [Example A80, 4-(2-{[6-Chloro-2,4,8,22-tetraazatetracyclo[14.3.1.1(3,7).1(9,13)]docosa-1(20),3(22),4,6,9(21),10,12,16,18-nonaen-12-yl]amino}-2-oxoethyl)-N,N-dimethylpiperidine-1-carboxamide trifluoroacetate] | 4.4 | 5.3 | 21 | 8.1 | 62 | – | – | – | – | – |
| O=C(Nc1ccc2cc1CCc1cccc(c1)Nc1ncc(Cl)c(n1)N2)Nc1c(Cl)cccc1Cl [Example B113, N-[6-Chloro-2,4,8,22-tetraazatetracyclo[14.3.1.1(3,7).1(9,13)]docosa-1(20), 3(22),4,6,9(21),10,12,16,18-nonaen-12-yl]-N′-(2,6-dichlorophenyl)urea trifluoroacetate] | – | – | – | – | – | 7.4 | 17 | 4.7 | 48 | ALK % of inhibition at a concentration of 500 nM or 1 mM [2, 10]: 9.5% |

Second part, led by results:

| IC50 [1, 5] [nM] | IC50 (TYK2) [nM] | ALK % of inhibition at a concentration of 500 nM or 1 mM [2, 6] [%] | IC50 [3, 7] [nM] | IC50 [4, 8] [nM] | IC50 ([1]; Table B1) [nM] | IC50 (TYK2; Table B1) [nM] | IC50 ([3]; Table B1) [nM] | IC50 ([4]; Table B1) [nM] | SMILES | also measured |
| --- | --- | --- | --- | --- | --- | --- | --- | --- | --- | --- |
| – | – | – | – | – | 70 | 42 | 5 | > 400 | O=C(Nc1ccc2cc1CCc1cncc(c1)Nc1ncc(Cl)c(n1)N2)N1CCC(c2ccccc2)C1 (stereo not shown) [Example B312, N-[6-Chloro-2,4,8,18,22-pentaazatetracyclo[14.3.1.1(3,7).1(9,13)]docosa-1(20),3(22),4,6,9(21),10,12,16,18-nonaen-12-yl]-3-phenylpyrrolidine-1-carboxamide bis(trifluoroacetate)] | ALK % of inhibition at a concentration of 500 nM or 1 mM [2, 9]: 40% |
| – | – | – | – | – | 25 | 7.1 | 18 | 24 | CN(C)S(=O)(=O)NCCNC(=O)Nc1ccc2cc1CCc1cccc(c1)Nc1ncc(Cl)c(n1)N2 [Example B328, N-[6-chloro-2,4,8,22-tetraazatetracyclo[14.3.1.1(3,7).1(9,13)]docosa-1(20),3(22),4,6,9(21),10,12,16,18-nonaen-12-yl]-N′-(2-{[(dimethylamino)sulfonyl]amino}ethyl)urea trifluoroacetate] | ALK % of inhibition at a concentration of 500 nM or 1 mM [2, 9]: 16% |
| – | – | – | – | – | > 200 | 150 | 60 | > 200 | O=C(Nc1ccc2cc1CCc1cncc(c1)Nc1ncc(Cl)c(n1)N2)N1CCN(c2ccncc2)CC1 [Example B293, N-[6-Chloro-2,4,8,18,22-pentaazatetracyclo[14.3.1.1(3,7).1(9,13)]docosa-1(20),3(22),4,6,9(21),10,12,16,18-nonaen-12-yl]-4-pyridin-4-ylpiperazine-1-carboxamide tetrakis(trifluoroacetate)] | ALK % of inhibition at a concentration of 500 nM or 1 mM [2, 10]: 45% |
| 17 | 32 | 26 | 21 | 86 | – | – | – | – | CC(=O)N1CCC(CC(=O)Nc2ccc3cc2CCc2cncc(c2)Nc2ncc(Cl)c(n2)N3)C1 (stereo not shown) [Example A94, 2-(1-Acetylpyrrolidin-3-yl)-N-[6-chloro-2,4,8,18,22-pentaazatetracyclo[14.3.1.1(3,7).1(9,13)]docosa-1(20),3(22),4,6,9(21),10,12,16,18-nonaen-12-yl]acetamide bis(trifluoroacetate)] | – |
| 6.6 | 11 | 26 | 4.5 | 80 | – | – | – | – | CN(C)S(=O)(=O)N1CCC(CC(=O)Nc2ccc3cc2CCc2cncc(c2)Nc2ncc(Cl)c(n2)N3)CC1 [Example A96, N-[6-Chloro-2,4,8,18,22-pentaazatetracyclo[14.3.1.1(3,7).1(9,13)]docosa-1(20),3(22),4,6,9(21),10,12,16,18-nonaen-12-yl]-2-{1-[(dimethylamino)sulfonyl]piperidin-4-yl}acetamide bis(trifluoroacetate)] | – |
| – | – | – | – | – | 14 | 54 | 20 | 40 | Clc1cnc2nc1Nc1ccc(CN[C@@H]3CCNC3)c(c1)CCc1cccc(c1)N2 [Example B222, (3R)—N-{[6-Chloro-2,4,8,22-tetraazatetracyclo[14.3.1.1(3,7).1(9,13)]docosa-1(20),3(22),4,6,9(21),10,12,16,18-nonaen-12-yl]methyl}pyrrolidin-3-amine tris(trifluoroacetate)] | ALK % of inhibition at a concentration of 500 nM or 1 mM [2, 10]: 34% |
